Assay results: patent US11186573B2, “Inhibitors of ROR gamma” (Vitae Pharmaceuticals, LLC, priority 2017, dated 2021)
“Also recorded” adds a separate entry of the source. Structures can show the parent of a compound that is named as a salt. Blank lines part the entries; values can stand above or below the compound they belong to.

Tests used:
Type in all cases: physicochemical
[1] = Oxidation/degradation during salt screening and salt preparation; conditions: for degradation during preparation: salt preparation / air-drying
Description: A salt/co-crystal screening was conducted under 127 conditions with 20 salt/co-crystal co-formers and seven solvent systems. For each condition, approximately 20 mg of Compound 1 was dispersed in the selected solvent in a glass vial and then salt/co-crystal co-former was added. Observation of slurries were followed by isolation and analysis of the resulting solids. Even though some crystalline solids were isolated and analyzed by XRPD, discoloration, possibly associated with decomposition was also observed (Table 1). Salt-screening experiments yielding a unique XRPD pattern were analyzed by HPLC-UV and were all determined to be primarily composed of degradants.
With the exception of the HBr salt, salt screening was unsuccessful in identifying further options for new forms of Compound 1 because of degradation. […] For example, solvent systems in which Compound 1 has limited solubility were chosen for formation of the HCl and sulfates salts to limit oxidation, while providing enough solubility to promote conversion to crystalline salts. However, this approach is time consuming and not favorable for large scale manufacturing methods.

[2] = Dynamic Vapor Sorption (DVS) moisture uptake
[3] = Solubility in re-slurry solvents
[4] = Slurry in acetone/water (1:1 v/v), hydrate stability at water activity; conditions: aw=0.91, acetone/water 1:1 v/v, slurried one week at ambient
From the text: Form D can also isolated from the amorphous bis-hydrogen bromide salt form of Compound 1 in a slurry experiment comprising acetone/water (1:1 v/v). For example, a saturated solution the amorphous bis-hydrogen bromide salt form om acetone/water (1:1 v/v) was slurried for one week at ambient and the solid was harvested to obtain Form D. The water activity (aw) of an equal volume mixture of acetone and water is 0.91. See SSCI internal report, Water Activity Calculations using UNIFAC Calculator, SR-20150515.01, dated Jul. 23, 2015. When solvent-free polymorphs are considered, the relative thermodynamic stability of two polymorphs is determined by the Gibbs free energy difference at a given temperature and pressure. However, when hydrate forms are considered, the water activity in the solvent contributes to the relative physical stability and thus, the resulting form. See Qu H, Louhi-Kultanen M, Kallas J. Solubility and stability of anhydrate/hydrate in solvent mixtures. Int J Pharm. 2006; 321:101-107 and Zhu H, Grant D J W. Influence of water activity in organic solvent+water mixtures on the nature of the crystallizing drug phase. 2. Ampicillin. Int J Pharm. 1996; 139:33-43.

susceptibility to oxidation ([1]; particularly in solution): highly susceptible to oxidation
Compound: CCS(=O)(=O)c1ccc(CNC(=O)c2cnc3c(c2)CN(C[C@H]2CC[C@H](C(F)(F)F)CC2)[C@H]3C(C)C)nc1 [Compound 1]

solubility in isopropyl acetate/water mixture compared with heptane/water mixture [3]: greater
solubility in IPAc compared with n-heptane ([3]; re-slurry solvents): slightly higher
stability of the hydrate at water activity [4]: stable
Compound: CCS(=O)(=O)c1ccc(CNC(=O)c2cnc3c(c2)CN(C[C@H]2CC[C@H](C(F)(F)F)CC2)[C@H]3C(C)C)nc1 [Form D]
moisture uptake compared with the other solid forms ([2]; DVS isotherm plots, FIG. 16 vs FIGS. 4, 8, 12): significantly less moisture update; also recorded: significantly less than the other forms

degradation during preparation [1]: did not degrade during preparation
weight change (moisture uptake) ([2]; DVS isotherm, FIG. 16): ≤ 5%
Compound: CCS(=O)(=O)c1ccc(CNC(=O)c2cnc3c(c2)CN(C[C@H]2CC[C@H](C(F)(F)F)CC2)[C@H]3C(C)C)nc1 [bis-hydrogen bromide salt]

degradation during preparation [1]: did not degrade during preparation
amount of water absorbed relative to the corresponding bis-hydrogen bromide form ([2]; DVS, FIGS. 8 and 16): about twice the amount of water
Compound: Br.CCS(=O)(=O)c1ccc(CNC(=O)c2cnc3c(c2)CN(C[C@H]2CC[C@H](C(F)(F)F)CC2)[C@H]3C(C)C)nc1 [mono-hydrogen bromide salt]

degradation during preparation [1]: less degradation than others
Compound: O=S(=O)(O)O [sulfate]

composition of isolated salt-screening solid by HPLC-UV ([1]; salt/co-crystal screening of Compound 1): primarily degradants
Compound: adipic acid
